In the supplement of paper PMC13380429:

How the values were obtained:
Settings in all cases: 72 h
U2OS [1] = assay: cell viability relative to DMSO; higher = less toxic
Vero E6 [2] = assay: as above
Calu-3 [3] = assay: as above
Caco-2 [4] = assay: as above
HepG2 [5] = assay: as above
U2OS [6] = assay: drug sensitivity score (DSS) for viability; higher = more toxic; extreme values may be limits of the assay
Vero E6 [7] = assay: as above
Calu-3 [8] = assay: as above
Caco-2 [9] = assay: as above
HepG2 [10] = assay: as above
U2OS [11] = assay: relative viability EC50 (midpoint between 100% and the lowest measured viability); higher = less toxic
Vero E6 [12] = assay: as above
Calu-3 [13] = assay: as above
Caco-2 [14] = assay: as above
HepG2 [15] = assay: as above

| SMILES | cell viability (U2OS [1]; 1 nM) | cell viability (U2OS [1]; 10 nM) | cell viability (U2OS [1]; 100 nM) | cell viability (U2OS [1]; 1000 nM) | cell viability (U2OS [1]; 10000 nM) | cell viability (Vero E6 [2]; 1 nM) | cell viability (Vero E6 [2]; 10 nM) | cell viability (Vero E6 [2]; 100 nM) | cell viability (Vero E6 [2]; 1000 nM) | cell viability (Vero E6 [2]; 10000 nM) | cell viability (Calu-3 [3]; 1 nM) | cell viability (Calu-3 [3]; 10 nM) | cell viability (Calu-3 [3]; 100 nM) | cell viability (Calu-3 [3]; 1000 nM) | cell viability (Calu-3 [3]; 10000 nM) | cell viability (Caco-2 [4]; 1 nM) | cell viability (Caco-2 [4]; 10 nM) | cell viability (Caco-2 [4]; 100 nM) | cell viability (Caco-2 [4]; 1000 nM) | cell viability (Caco-2 [4]; 10000 nM) | cell viability (HepG2 [5]; 1 nM) | cell viability (HepG2 [5]; 10 nM) | cell viability (HepG2 [5]; 100 nM) | cell viability (HepG2 [5]; 1000 nM) | cell viability (HepG2 [5]; 10000 nM) | drug sensitivity score (U2OS [6]) | drug sensitivity score (Vero E6 [7]) | drug sensitivity score (Calu-3 [8]) | drug sensitivity score (Caco-2 [9]) | drug sensitivity score (HepG2 [10]) | relative viability EC50 (U2OS [11]) | relative viability EC50 (Vero E6 [12]) | relative viability EC50 (Calu-3 [13]) | relative viability EC50 (Caco-2 [14]) | relative viability EC50 (HepG2 [15]) |
| --- | --- | --- | --- | --- | --- | --- | --- | --- | --- | --- | --- | --- | --- | --- | --- | --- | --- | --- | --- | --- | --- | --- | --- | --- | --- | --- | --- | --- | --- | --- | --- | --- | --- | --- | --- |
| Nc1ncnc2c1ncn2[C@@H]1O[C@H](C[C@@H](N)CC[C@H](N)C(=O)O)[C@@H](O)[C@H]1O [sinefungin] | 96.6% | 98.1% | 97.7% | 101% | 96.2% | 112% | 94.3% | 102% | 104% | 99.5% | 104% | 104% | 100% | 94.8% | 93.5% | 86.7% | 95.5% | 91.4% | 108% | 106% | 115% | 96.2% | 113% | 89.9% | 97.1% | 0 | 0 | 0 | 0 | 0 | > 10 µM | > 10 µM | > 10 µM | > 10 µM | > 10 µM |
| O=C(O)[C@H](O)[C@@H](O)[C@H](O)[C@H](O)CO [sodium-gluconate] | 96.9% | 97% | 98.2% | 99.8% | 103% | 96.9% | 107% | 102% | 93.5% | 105% | 106% | 96.6% | 108% | 109% | 105% | 104% | 101% | 104% | 113% | 92.2% | 79.7% | 108% | 94.3% | 92.7% | 91% | 0 | 0 | 0 | 0 | 0 | > 10 µM | > 10 µM | > 10 µM | > 10 µM | > 10 µM |
| CC(C(=O)O)c1ccc(C(=O)c2cccs2)cc1 (stereo not given) [suprofen] | 101% | 93.5% | 97.4% | 97% | 103% | 97.7% | 97.9% | 95.4% | 102% | 98.7% | 97.9% | 103% | 89% | 86.6% | 89.8% | 105% | 98% | 101% | 98% | 90.8% | 102% | 93.2% | 92.9% | 86.8% | 85.3% | 0 | 0 | 1.6 | 0 | 1.1 | > 10 µM | > 10 µM | > 10 µM | > 10 µM | > 10 µM |
| O=C(CO)[C@@H](O)[C@@H](O)[C@H](O)CO [tagatose] | 89.1% | 95.3% | 92.7% | 102% | 107% | 93.7% | 94.5% | 92.1% | 85.3% | 110% | 98.4% | 99.6% | 99.7% | 97% | 102% | 98.5% | 94.4% | 103% | 106% | 99.3% | 101% | 91.6% | 97.6% | 94.9% | 106% | 0 | 0 | 0 | 0 | 0 | > 10 µM | > 10 µM | > 10 µM | > 10 µM | > 10 µM |
